Measurements published in the NIST ThermoML archive (doi:10.1016/j.fluid.2009.07.009).
± gives the expanded uncertainty stated by the source.

Experiment: relative permittivity at zero frequency (dimensionless)
Details: 303.15 K; 101.33 kPa; Liquid; Parallel plate capacitor

In order of falling “relative permittivity at zero frequency” value:
1. NC=O [formamide]  106.14 ± 0.01
2. CN(C)C=O [dimethylformamide]  36.55 ± 0.22
3. CN(C)CCO [2-(N,N-dimethylamino)ethanol]  17.18 ± 0.1
